From PMC10298626 (International Journal of Molecular Sciences, 2023)
Marks after values point to notes of the source that are not given here.

Columns and labels:
[1] = test system: LPS-stimulated RAW264.7 cells; assay: NO production (Griess reagent) in LPS-stimulated RAW264.7 cells; type: cell-based, Mouse; conditions: for NO production, Average / NO production, Average (μM): then LPS (500 ng/mL) 20 h, LPS alone 25.9, control 3.1; for Anti-inflammatory effect (inhibition of NO secretion), in words: 20, 40, and 80 μM, compared with LPS-only treatment
Method: A high concentration of NO promotes the synthesis of inflammatory mediators, leading to an inflammatory response, and has been reported to be a cause of various immune diseases. Therefore, this study was conducted to investigate the effect of coumarin derivatives on the production of NO induced by LPS stimulation in RAW264.7 cells. The cells were treated with coumarin derivatives at concentrations of 20, 40, and 80 μM for 2 h. Then, the cells were treated with LPS. After 20 h, the culture supernatant was recovered, and the amount of NO was measured. […] The anti-inflammatory activity of these derivatives depended on the position of the substituted group rather than the electron density of the substituted group.
The Griess reagent was used to measure NO production. RAW264.7 cells were seeded into a 96-well plate and cultured for 24 h. The cells were treated with 20, 40, and 80 μM of coumarin derivatives, cultured for 2 h, and then cultured with LPS (500 ng/mL) for 20 h. The same amount of cell supernatant and Griess reagent were used for the reaction, and absorbance was measured at 540 nm.

[2] = in vitro; type: cell-based; conditions: mouse, RAW264.7 cells, then LPS (500 ng/mL) 20 h, read-out: Cell viability, Average (%); for viability at 22 h, 20 μM: 20 μM for 2 h; for viability at 22 h, 40 μM: 40 μM for 2 h; for viability at 22 h, 80 μM: 80 μM for 2 h
Method: To investigate the anti-inflammatory activity of coumarin derivatives, cell viability was analyzed by treating RAW264.7 cells with 23 types of coumarin derivatives at concentrations of 20, 40, and 80 μM for 2 h and with LPS for 20 h.
Mouse macrophage RAW264.7 cells were purchased from the Korea Cell Line Bank (Seoul, Republic of Korea) and cultured in Dulbecco’s Modified Eagle Medium (Corning, NY, USA) containing 10% fetal bovine serum and 1% penicillin/streptomycin at 37 °C and 5% CO2. The medium was changed every 2 days and subcultured when the cells grew > 80%.
EZ-Cytox cell viability assay kit (Dogen, Suwon, Republic of Korea) was used to measure cell viability according to the manufacturer’s instructions. RAW264.7 cells were seeded into a 96-well plate (1 × 10^5 cells/well) and treated with coumarin derivatives at concentrations of 20, 40, and 80 μM. After 2 h, the cells were treated with LPS (500 ng/mL) and cultured for 24 h in a 37 °C, 5% CO2 incubator. The culture supernatant was treated with 10% EZ-Cytox reagent, and a microplate reader was used to measure the absorbance at 450 nm.

| Structure (SMILES) | NO production, Average ([1]; 20 μM for 2 h) [µM] | NO production, Average ([1]; 40 μM for 2 h) [µM] | NO production, Average ([1]; 80 μM for 2 h) [µM] | Anti-inflammatory effect (inhibition of NO secretion), in words [1] | viability at 22 h, 20 μM [2] [%] | viability at 22 h, 40 μM [2] [%] | viability at 22 h, 80 μM [2] [%] | NO production, Average (μM) ([1]; 40 μM for 2 h) | NO production, Average (μM) ([1]; 80 μM for 2 h) |
| --- | --- | --- | --- | --- | --- | --- | --- | --- | --- |
| N#CC1=C(N)Oc2c(c(=O)oc3ccccc23)C1c1ccccc1F (centres unmarked) [Coumarin derivative 1] | 29.50 | 29.82 | 28.71 | almost no anti-inflammatory effect | 90.4 | 96 | 109 | – | – |
| N#CC1=C(N)Oc2c(c(=O)oc3ccccc23)C1c1ccc(F)cc1 (centres unmarked) [Coumarin derivative 3] | 27.60 | 28.86 | 22.84 | – | 95.4 | 101 | 110 | – | – |
| N#CC1=C(N)Oc2c(c(=O)oc3ccccc23)C1c1ccccc1C(F)(F)F (centres unmarked) [Coumarin derivative 4] | 15.71 | – | – | – | 79.9 | 91.2 | 88.7 | 17.45 *** μM | 18.09 *** μM |
| N#CC1=C(N)Oc2c(c(=O)oc3ccccc23)C1c1cccc(C(F)(F)F)c1 (centres unmarked) [Coumarin derivative 5] | 30.77 | 28.71 | 25.38 | almost no anti-inflammatory effects | 86.8 | 110 | 113 | – | – |
| N#CC1=C(N)Oc2c(c(=O)oc3ccccc23)C1c1ccc(C(F)(F)F)cc1 (centres unmarked) [Coumarin derivative 6] | 30.92 | 26.49 | – | weak anti-inflammatory effects at high concentrations | 98.7 | 111 | 111 | – | 16.82 *** μM |
| N#CC1=C(N)Oc2c(c(=O)oc3ccccc23)C1c1ccccc1Cl (centres unmarked) [Coumarin derivative 7] | 32.83 | 29.66 | 27.60 | – | 106 | 121 | 124 | – | – |
| N#CC1=C(N)Oc2c(c(=O)oc3ccccc23)C1c1ccc(Cl)cc1 (centres unmarked) [Coumarin derivative 8] | 32.19 | 24.11 | – | – | 103 | 107 | 93.5 | – | 10.64 *** μM |
| Cc1ccccc1C1C(C#N)=C(N)Oc2c1c(=O)oc1ccccc21 (centres unmarked) [Coumarin derivative 9] | 23.27 | 24.10 | 21.32 | almost no anti-inflammatory effect | 118 | 111 | 112 | – | – |
| Cc1cccc(C2C(C#N)=C(N)Oc3c2c(=O)oc2ccccc32)c1 (centres unmarked) [Coumarin derivative 10] | 24.24 | – | – | inhibited NO secretion in a concentration-dependent manner | 111 | 113 | 104 | 20.34 ** μM | 9.21 *** μM |
| Cc1ccc(C2C(C#N)=C(N)Oc3c2c(=O)oc2ccccc32)cc1 (centres unmarked) [Coumarin derivative 11] | 24.80 | 26.47 | 26.19 | – | 113 | 108 | 122 | – | – |
